One experiment addresses T1, SRP/FtsY (Escherichia coli, UniProt P0AGD7+P10121).
T1 construct: (Ec)Ffh (full-length) was concentrated on a 10 kDa centrifugal filter; (Ec)FtsY (full-length) was re-buffered in HT buffer; His-tag; made in house; host or cells: E. coli
Description: YohP insertion into SecYEG-proteoliposomes with purified SRP/FtsY, proteinase K resistance. It counts as biochemical, E. coli. To be noted: added together with SRP/FtsY (20 ng µL−1 each), 10 µM GTP. The protocol:
(§1) For protein transport assay, YohP cloned in pET19b was synthesized in vitro using a purified transcription/translation system composed of cytosolic translation factors (CTF) and high salt-washed ribosomes[35],[36]. The ^35S-Methionine/^35S-Cysteine labeling mix was obtained from Perkin Elmer (Wiesbaden, Germany). INVs of E. coli cells were prepared by sucrose gradient centrifugation of cell extracts as described[76] and resuspended in INV buffer (50 mM triethanolamine acetate, pH 7.5, 200 mM sucrose, 1 mM DTT). […] The supernatant containing YohP was then incubated with INV, liposomes or SecYEG-proteoliposomes for 10 min at 37 °C in the presence of 10 µM GTP. […] Next, the samples were denatured at 56 °C for 10 min in 35 μL of TCA loading dye (prepared by mixing one part of solution III (1 M dithiothreitol) with 4 parts of solution II (6.33% (w/v) SDS, 0.083 M Tris, 30% (v/v) glycerol and 0.053% (w/v) bromophenol blue) and 5 parts of solution I (0.2 M Tris, 0.02 M EDTA pH 8)) and analyzed after separation on a modified SDS-PAGE[35] by phosphor imaging. For quantification of YohP insertion, autoradiography samples were analyzed by using the ImageQuant (GE Healthcare) software. […] Mean values and SEM values were determined by using either Excel (Microsoft Corp.) or GraphPad Prism (GraphPad Prism Corp. San Diego). […]

In experiment [1] the test system is SRP-dependent membrane insertion of YohP into INV. Description: Post-translational YohP insertion into inverted inner membrane vesicles (INV), proteinase K resistance. As to conditions: at 0.6 mM (p)ppGpp, 10 µM GTP. Type of experiment: biochemical, E. coli. As to the method: as §1
Another experiment concerns the target T2, (Ec)Ffh-NG (Escherichia coli, UniProt P0AGD7).
T2 construct: purified NG domains of (Ec)Ffh, (Ec)FtsY and (Bs)Ffh; His6 (C); made in house; host or cells: E. coli BL21 (DE3)
Description: Isothermal titration calorimetry (ITC) of nucleotide binding. Also on record: species or system E. coli. As to the method:
Ligands and proteins (purified NG domains of (Ec)Ffh, (Ec)FtsY and (Bs)Ffh) were diluted with a buffer containing 20 mM HEPES-Na (pH 7.5), 200 mM NaCl, 20 mM MgCl2 and 20 mM KCl. The NG domains of (Ec)Ffh, (Ec)FtsY and (Bs)Ffh were titrated in the sample-cell at a nominal concentration of 25 µM each. The nucleotides GDP, GTP, ppGpp and pppGpp (Jena Bioscience, Germany) were placed in the syringe and their concentrations were predetermined by absorbance at 252 nm to saturate the protein samples during the titrations. All the measurements were performed at 25 °C with the instrument MicroCal PEAQ-ITC (©Malvern Panalytical) with a method consisting of 13 injections (first 0.4 µL, and the rest 3 µL each) and 150 s of spacing. The raw data (see source) were processed with the MicroCal PEAQ-ITC Analysis Software (©Malvern Panalytical) using the “one set of sites” models.

In the next experiment the target is T3, Ffh-NG/FtsY-NG complex (Escherichia coli, UniProt P0AGD7+P10121, DEL297-453).
T3 construct: purified NG domains of (Ec)FtsY and (Ec)Ffh were diluted; His6 (C); made in house; host or cells: E. coli BL21 (DE3)
Description: Analytical size-exclusion chromatography of GMPPNP-dependent Ffh/FtsY complex formation. It counts as biochemical, E. coli. As to conditions: 0.25, 0.5 or 1 mM GMPPNP. As to the method: For the analytical SEC, purified NG domains of (Ec)FtsY and (Ec)Ffh were diluted in a buffer containing 20 mM HEPES (pH 7.5), 200 mM NaCl, 20 mM MgCl2 and 20 mM KCl to a final concentration of 100 µM (Fig. 3g) and 50 µM (Fig. 3h, i) each. Indicated amounts of nucleotides were added simultaneously, and the solution was incubated for 30 min at room temperature. 100 µL were then injected at 4 °C on to a pre-equilibrated S200 300/10 GL analytical size-exclusion column (GE Healthcare, München, Germany) on an Äkta system (UNICORN 7.6; Cytiva). Data has been plotted using GraphPad Prism (GraphPad Prism Corp. San Diego).
For orientation: In gel filtration, larger molecules generally elute earlier.

Where [2] appears, read: (p)ppGpp concentrations exceeding those of GMPPNP by two-fold.
[3] abbreviates: at equal (p)ppGpp/GMPPNP ratios.

The Kd is the constant that tells how readily two partners part at equilibrium.

T3 sequence (P0AGD7 1-296, stated change not applied): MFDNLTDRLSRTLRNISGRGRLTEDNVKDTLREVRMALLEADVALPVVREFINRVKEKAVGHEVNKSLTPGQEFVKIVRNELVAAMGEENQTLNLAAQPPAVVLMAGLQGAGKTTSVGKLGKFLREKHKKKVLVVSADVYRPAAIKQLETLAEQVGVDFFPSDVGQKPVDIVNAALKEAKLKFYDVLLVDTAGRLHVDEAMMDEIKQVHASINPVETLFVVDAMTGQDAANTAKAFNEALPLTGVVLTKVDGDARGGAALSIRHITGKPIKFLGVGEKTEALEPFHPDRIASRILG
T3 sequence (P10121 197-497, stated change not applied): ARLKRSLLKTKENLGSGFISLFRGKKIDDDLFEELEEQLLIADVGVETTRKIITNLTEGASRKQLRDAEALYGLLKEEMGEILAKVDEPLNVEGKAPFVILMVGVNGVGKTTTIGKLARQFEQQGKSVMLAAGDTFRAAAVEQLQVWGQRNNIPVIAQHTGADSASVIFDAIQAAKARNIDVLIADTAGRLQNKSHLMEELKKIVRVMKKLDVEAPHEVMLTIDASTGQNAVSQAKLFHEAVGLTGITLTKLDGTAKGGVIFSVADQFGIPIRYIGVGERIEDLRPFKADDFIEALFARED
T2 sequence (P0AGD7 1-296): as the sequence (P0AGD7 1-296, stated change not applied) above
T1 sequence (P0AGD7 whole entry): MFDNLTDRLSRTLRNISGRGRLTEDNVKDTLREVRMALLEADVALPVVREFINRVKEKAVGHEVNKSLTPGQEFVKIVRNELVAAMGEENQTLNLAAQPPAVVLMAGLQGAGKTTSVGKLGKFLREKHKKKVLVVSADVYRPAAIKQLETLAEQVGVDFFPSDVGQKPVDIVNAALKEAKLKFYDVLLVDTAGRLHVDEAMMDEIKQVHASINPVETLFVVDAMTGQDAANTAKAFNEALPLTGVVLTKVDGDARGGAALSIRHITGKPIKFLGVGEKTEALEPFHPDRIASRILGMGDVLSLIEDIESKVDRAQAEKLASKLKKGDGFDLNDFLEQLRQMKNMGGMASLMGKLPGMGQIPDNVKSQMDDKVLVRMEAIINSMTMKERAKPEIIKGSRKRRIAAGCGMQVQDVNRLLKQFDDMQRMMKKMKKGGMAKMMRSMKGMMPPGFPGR
T1 sequence (P10121 whole entry): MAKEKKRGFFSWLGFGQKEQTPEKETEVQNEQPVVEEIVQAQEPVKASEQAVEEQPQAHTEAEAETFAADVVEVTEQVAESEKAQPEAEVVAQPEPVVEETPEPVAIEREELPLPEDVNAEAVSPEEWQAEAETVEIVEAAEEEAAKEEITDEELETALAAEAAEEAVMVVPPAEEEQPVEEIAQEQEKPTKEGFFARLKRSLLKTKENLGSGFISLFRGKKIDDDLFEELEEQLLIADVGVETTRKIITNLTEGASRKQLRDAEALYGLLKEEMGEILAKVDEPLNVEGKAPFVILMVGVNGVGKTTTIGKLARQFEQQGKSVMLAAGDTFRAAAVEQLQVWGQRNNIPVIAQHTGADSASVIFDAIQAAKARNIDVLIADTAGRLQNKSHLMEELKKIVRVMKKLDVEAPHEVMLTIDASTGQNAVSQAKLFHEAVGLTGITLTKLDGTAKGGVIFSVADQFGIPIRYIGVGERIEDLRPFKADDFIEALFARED

`Nc1nc2c(ncn2[C@@H]2O[C@H](COP(=O)(O)OP(=O)(O)O)[C@@H](OP(=O)(O)OP(=O)(O)O)[C@H]2O)c(=O)[nH]1` [ppGpp]: the “YohP insertion into SecYEG proteoliposomes” value on SRP/FtsY is reported as “reduced YohP insertion into SecYEG proteoliposomes drastically”. The “YohP insertion into INV” value in experiment [1] is “complete block of insertion”. Further, on (Ec)Ffh-NG, the Kd stood at 7.9 ± 1.9 µM. The Ffh/FtsY complex formation entry on Ffh-NG/FtsY-NG complex (setting [2]) is recorded as “roughly abolished”; on Ffh-NG/FtsY-NG complex (setting [3]) it was “half-inhibited”.
On the same counts, the results for `Nc1nc2c(ncn2[C@@H]2O[C@H](COP(=O)(O)OP(=O)(O)OP(=O)(O)O)[C@@H](OP(=O)(O)OP(=O)(O)O)[C@H]2O)c(=O)[nH]1` [pppGpp] are “reduced YohP insertion into SecYEG proteoliposomes drastically”, “complete block of insertion”, 13.9 ± 7.1 µM, “roughly abolished” and “half-inhibited”.

For the origin of these results see article PMC8881573, “Inhibition of SRP-dependent protein secretion by the bacterial alarmone (p)ppGpp” (Nature Communications, 2022).
